Test results: PMC9127750, “Structure-based design of CDC42 effector interaction inhibitors for the treatment of cancer” (Cell reports, 2022)
“And” between values parts separate entries of the source, which are not always exact repeats. Identical values can stand only once.

Test system: WM3248 melanoma cells, 486 antibodies
Assay: Reverse phase protein arrays (RPPA)
Type: cell-based, Human
Conditions: 10 uM
Text: Pellets were snap frozen in liquid nitrogen and shipped to MD Anderson Cancer Center core RPPA facility for RPPA analysis (Table S5). Three biological replicates for each sample were generated.
Nomenclatures on the RPPA heatmaps: name_of_antibody.species_of_antibody.status_of_antibody. V - antibody validated; C - validation of antibody in progress; Q - antibody nonspecific; E – under evaluation; antibodies raised in M - mouse, G - goat, R - rabbit, or T - rat.

## CN(C)c1cccc(Nc2cc(-c3ccccc3)nc(C3CCNCC3)n2)c1 [ARN22089, N1,N1-dimethyl-N3-(6-phenyl-2-(piperidin-4-yl)pyrimidin-4-yl)benzene-1,3-diamine]
Single replicates
  RPPA level MMP14.R.V: 0.939 and 1.138
  RPPA level MR1.M.C: 1.059 and 1.005 and 1.063
  RPPA level MRAP.R.C: 1.023 and 1.051
  RPPA level MSH2.R.C: 0.977 and 1.024
  RPPA level MSH6.R.C: 0.940 and 0.976
  RPPA level MSI2.R.C: 1.020 and 0.933
  RPPA level MTCO1.M.V: 1.128 and 0.684
  RPPA level MTSS1.M.C: 1.023 and 1.031
  RPPA level Mcl.1.R.V: 0.823 and 0.973 and 0.929
  RPPA level MelanA.R.C: 0.752 and 0.988 and 1.034
  RPPA level Melanoma.gp100.R.C: 0.837 and 0.959 and 1.052
  RPPA level Merlin.R.C: 1.020 and 0.924
  RPPA level Midkine.R.V: 1.032 and 0.966 and 1.004
  RPPA level Mitofusin.1.R.V: 0.925 and 1.003 and 1.050
  RPPA level Mitofusin.2.R.V: 0.797 and 0.934 and 1.103
  RPPA level Mnk1.R.V: 0.917 and 0.929 and 1.022
  RPPA level mTOR.R.V: 1.016 and 0.918 and 0.854
  RPPA level mTOR_pS2448.R.C: 1.016 and 0.946 and 0.924
  RPPA p21.R.C: 1.203 and 0.773 and 1.055
  RPPA p27.Kip1.R.C: 1.051 and 0.999
  RPPA p27_pT157.R.C: 1.124 and 1.006
  RPPA p27_pT198.R.V: 0.989 and 1.466 and 1.049
  RPPA p38.MAPK.R.V: 0.899 and 0.964 and 1.062
  RPPA p38.MAPK._pT180_Y182.R.V: 0.872 and 0.913 and 0.950
  RPPA p38.a.M.V: 0.966 and 1.049
  RPPA p44.42.MAPK.R.V: 0.852 and 0.899
  RPPA p53.R.C: 0.871 and 0.886 and 0.966
  RPPA p70.S6K1.R.V: 1.046 and 0.827 and 0.882
  RPPA p70.S6K_pT389.R.V: 1.331 and 0.838 and 0.820
  RPPA p90RSK_pT573.R.C: 1.224 and 0.922 and 1.014
Single samples
  RPPA DNMT1.R.V: 1.052 and 0.962 and 1.050
  RPPA DRP1.R.V: 1.012 and 0.957 and 0.978
  RPPA DUSP4.R.V: 0.821 and 0.862 and 1.012
  RPPA DUSP6.R.C: 1.063 and 0.981 and 0.768
  RPPA DYRK1B.R.C: 1.057
  RPPA Dvl3.R.V: 0.885 and 1.058 and 1.012
  RPPA E2F1.R.V: 1.030 and 1.011
  RPPA E.Cadherin.R.V: 0.941 and 1.144 and 1.080
  RPPA EGFR.R.V: 0.824 and 0.981 and 0.985
  RPPA EGFR_pY1068.R.C: 0.993 and 0.982
  RPPA EGFR_pY1173.R.V: 0.968 and 1.017 and 0.987
  RPPA EMA.M.C: 1.080 and 1.274
  RPPA ENY2.M.C: 0.960 and 1.056
  RPPA ER.a.R.V: 0.808 and 0.999 and 1.013
  RPPA ER.a_pS118.R.V: 1.079 and 0.918 and 0.929
  RPPA ERCC1.R.C: 1.102 and 1.123 and 0.975
  RPPA ERCC5.R.C: 0.931 and 0.897 and 0.810
  RPPA ERRalpha.R.V: 1.149 and 0.962
  RPPA EVI1.R.V: 1.129 and 1.023
  RPPA Elk1_pS383.R.C: 0.944 and 1.020 and 1.011
  RPPA Enolase.1.R.V: 0.956 and 0.946
  RPPA Enolase.2.R.V: 1.058 and 1.146 and 1.060
  RPPA EphA2.R.V: 0.798 and 1.104 and 1.103
  RPPA EphA2_pY588.R.C: 0.976 and 0.887
  RPPA Erk5.R.V: 0.766 and 0.899 and 1.062
  RPPA Ets.1.R.V: 1.143 and 1.054 and 1.017
  RPPA FABP5.R.C: 0.909 and 1.032 and 1.076
  RPPA FAK.R.C: 0.856 and 0.998
  RPPA FAK_pY397.R.V: 1.077 and 0.996
  RPPA FANCD2.R.V: 1.119 and 0.953 and 0.957
  RPPA FASN.R.V: 1.052 and 0.855 and 0.656
  RPPA FGF.basic.R.C: 0.867 and 1.005 and 0.952
  RPPA FN14.R.C: 0.860 and 1.189 and 1.048
  RPPA FOXM1.R.V: 1.131 and 0.950 and 0.985
  RPPA FOXO3.R.V: 0.873 and 1.121 and 1.097
  RPPA FRS2.alpha_pY196.R.V: 1.003 and 1.811
  RPPA FTO.R.V: 1.061 and 0.989 and 0.960
  RPPA Fibronectin.R.V: 0.546 and 0.983 and 0.999
  RPPA FoxO3a_pS318_S321.R.C: 1.060 and 0.984
  RPPA G6PD.R.V: 1.051 and 1.085 and 1.058
  RPPA GATA3.M.V: 1.245 and 0.906 and 0.898
  RPPA GATA6.R.V: 1.116 and 0.978
  RPPA GCLC.R.C: 0.924 and 1.030
  RPPA GCLM.R.V: 1.052 and 1.025 and 1.000
  RPPA GCN5L2.R.V: 0.890 and 0.985
  RPPA GGPS1.M.V: 0.998 and 0.974 and 1.046
  RPPA GRB2.R.V: 0.833 and 0.898 and 0.998
  RPPA GRB7.R.V: 0.772 and 1.100
  RPPA GSK.3B.R.C: 0.886 and 0.913 and 0.953
  RPPA GSK.3a.b.M.V: 1.163 and 1.006 and 1.033
  RPPA GSK.3a.b_pS21_S9.R.V: 1.290 and 0.899 and 0.932
